# Measurements taken from US20050176655A1, “Novel macrolide derivatives havaing effect of potentiating antifungal activity” (priority 2002, published 2005).
# What was measured:
# Test in all cases: Paper disk method, enhancing action for activities of azole antifungal agents
# Assay type in all cases: cell-based
# [1] = test system: Aspergillus niger ATCC 6275; details: 48 hours; for Inhibition activity (inhibition ring mm) A. niger ATCC 6275 GY / Transparency of the inhibition ring A. niger ATCC 6275 GY: GY medium (control, no azole); for Inhibition activity (inhibition ring mm) A. niger ATCC 6275 GYF / Transparency of the inhibition ring A. niger ATCC 6275 GYF: fluconazole 10 μg/ml; for Inhibition activity (inhibition ring mm) A. niger ATCC 6275 GYM / Transparency of the inhibition ring A. niger ATCC 6275 GYM: miconazole 0.1 μg/ml
# Summary of the method: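 Paper-disk assay on A. niger ATCC 6275 spores (0.2%) seeded on GY agar pH 6.0. After 48 h, inhibition-zone diameter recorded in mm and transparency graded A (transparent) to E (opaque).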
# [2] = test system: Candida albicans ATCC 64548; details: GYM, miconazole 0.03 μg/ml, 24 hours
# Summary of the method: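 GY agar (pH 6.0) seeded with C. albicans ATCC 64548 precultured in Waksman broth at 27° C for 40 hours, supplemented with sub-growth-inhibitory miconazole 0.03 μg/ml or fluconazole 0.5 μg/ml. Paper disk method; inhibition-zone diameter (mm) read after 24 hours, transparency graded A–E.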
# [3] = test system: fluconazole resistant Candida albicans ATCC 64550; details: 24 hours; for Inhibition activity (inhibition ring mm) C. albicans ATCC 64550 GYF / Transparency of the inhibition ring C. albicans ATCC 64550 GYF: fluconazole 30 μg/ml; for Inhibition activity (inhibition ring mm) C. albicans ATCC 64550 GYM / Transparency of the inhibition ring C. albicans ATCC 64550 GYM: miconazole 0.15 μg/ml
# Summary of the method: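 Paper disk assay on GY agar (pH 6.0) seeded with Waksman-broth-grown C. albicans ATCC 64550 (0.1% inoculum). Medium was supplemented with sub-growth-inhibitory miconazole 0.15 μg/ml or fluconazole 30 μg/ml. After 24 h, inhibition-zone diameter was measured in mm and transparency graded A–E (A most transparent, E opaque).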
smiles,measurement,setting,value
CCCCCC(=O)OC1C(C)OC(OC2C(C)C(=O)OC(C(C)(O)C(CC)OC(=O)CCCCC)C(C)C3=C(C)CC(C)(O3)C(OC3OC(C)CC(NC)C3O)C2C)CC1(C)OC (stereo not shown) [Compound 852],Inhibition activity (inhibition ring mm) A. niger ATCC 6275 GY,[1]; 50 μg/8 mm disk,9 mm
same,Transparency of the inhibition ring A. niger ATCC 6275 GY,[1]; 50 μg/8 mm disk,E (Growth of test organism was inhibited 35% or less.)
same,Inhibition activity (inhibition ring mm) A. niger ATCC 6275 GYF,[1]; 50 μg/8 mm disk,8 mm
same,Transparency of the inhibition ring A. niger ATCC 6275 GYF,[1]; 50 μg/8 mm disk,D (Growth of test organism was inhibited 35% or more and 55% or less.)
same,Inhibition activity (inhibition ring mm) A. niger ATCC 6275 GYM,[1]; 50 μg/8 mm disk,8 mm
same,Transparency of the inhibition ring A. niger ATCC 6275 GYM,[1]; 50 μg/8 mm disk,C (Growth of test organism was inhibited 55% or more and 75% or less.)
same,Inhibition activity (inhibition ring mm) A. niger ATCC 6275 GY,[1]; 100 μg/8 mm disk,10 mm
same,Transparency of the inhibition ring A. niger ATCC 6275 GY,[1]; 100 μg/8 mm disk,E (Growth of test organism was inhibited 35% or less.)
same,Inhibition activity (inhibition ring mm) A. niger ATCC 6275 GYF,[1]; 100 μg/8 mm disk,9 mm
same,Transparency of the inhibition ring A. niger ATCC 6275 GYF,[1]; 100 μg/8 mm disk,D (Growth of test organism was inhibited 35% or more and 55% or less.)
same,Inhibition activity (inhibition ring mm) A. niger ATCC 6275 GYM,[1]; 100 μg/8 mm disk,9 mm
same,Transparency of the inhibition ring A. niger ATCC 6275 GYM,[1]; 100 μg/8 mm disk,A (Growth of test organism was inhibited 95% or more.)
same,Inhibition activity (inhibition ring mm) C. albicans ATCC 64548 GYM,[2]; 50 μg/8 mm disk,9 mm
same,Transparency of the inhibition ring C. albicans ATCC 64548 GYM,[2]; 50 μg/8 mm disk,A (Growth of test organism was inhibited 95% or more.)
same,Inhibition activity (inhibition ring mm) C. albicans ATCC 64548 GYM,[2]; 100 μg/8 mm disk,10 mm
same,Transparency of the inhibition ring C. albicans ATCC 64548 GYM,[2]; 100 μg/8 mm disk,A (Growth of test organism was inhibited 95% or more.)
same,Inhibition activity (inhibition ring mm) C. albicans ATCC 64550 GYF,[3]; 10 μg/8 mm disk,9 mm
same,Transparency of the inhibition ring C. albicans ATCC 64550 GYF,[3]; 10 μg/8 mm disk,C (Growth of test organism was inhibited 55% or more and 75% or less.)
same,Inhibition activity (inhibition ring mm) C. albicans ATCC 64550 GYM,[3]; 10 μg/8 mm disk,9 mm
same,Transparency of the inhibition ring C. albicans ATCC 64550 GYM,[3]; 10 μg/8 mm disk,C (Growth of test organism was inhibited 55% or more and 75% or less.)
same,Inhibition activity (inhibition ring mm) C. albicans ATCC 64550 GYF,[3]; 50 μg/8 mm disk,11 mm
same,Transparency of the inhibition ring C. albicans ATCC 64550 GYF,[3]; 50 μg/8 mm disk,A (Growth of test organism was inhibited 95% or more.)
same,Inhibition activity (inhibition ring mm) C. albicans ATCC 64550 GYM,[3]; 50 μg/8 mm disk,10 mm
same,Transparency of the inhibition ring C. albicans ATCC 64550 GYM,[3]; 50 μg/8 mm disk,B (Growth of test organism was inhibited 75% of more and 95% or less.)
same,Inhibition activity (inhibition ring mm) C. albicans ATCC 64550 GYF,[3]; 100 μg/8 mm disk,12 mm
same,Transparency of the inhibition ring C. albicans ATCC 64550 GYF,[3]; 100 μg/8 mm disk,A (Growth of test organism was inhibited 95% or more.)
same,Inhibition activity (inhibition ring mm) C. albicans ATCC 64550 GYM,[3]; 100 μg/8 mm disk,12 mm
same,Transparency of the inhibition ring C. albicans ATCC 64550 GYM,[3]; 100 μg/8 mm disk,B (Growth of test organism was inhibited 75% of more and 95% or less.)
